# Patent US20250129093A1, “COMPOSITIONS AND METHODS RELATING TO ATP/P2X7R SIGNALING INHIBITION” (THE CHILDREN'S MEDICAL CENTER CORPORATION, priority 2022, published 2025)
# “Also recorded” adds a separate entry of the source.
# How the values were obtained:
# [1] = test system: P2X7R signaling through eATP; assay: BzATP-stimulated CD4+ T cells from human PBMCs, expression of Th2-related factors; assay type: cell-based; conditions: for inhibition of activation of P2X7R signaling through eATP (expression of Th2-related factors IL-4 and IRF4): human CD4+ T cells stimulated with benzoyl ATP (BzATP)
# Source text: Peripheral blood mononuclear cell (PBMCs) were isolated from collected human blood samples and recovered CD4+ T cells were purified and treated with different compounds. In particular cells were activated upon stimulation with benzoyl ATP (BzATP) and treated with human P2X7R inhibitor CE-224,535, P2X7 receptor antagonist oATP and the 6 small molecules identified in the bioinformatics and HTVS approaches above.
# [2] = test system: P2X7R signaling through eATP; conditions: cells of individuals who do not carry the P2X7R mutation; cited from earlier work
# [3] = test system: P2X7R−/− mice receiving a Bm12 heart; assay: Heart allograft survival in P2X7R-/- mice receiving a Bm12 heart; assay type: in vivo; conditions: Bm12 heart transplant, p=0.04
# Source text: (§1) The P2X7R mutation rs3751143 is associated with the development of increased immunological events, particularly with the development of a HyperTh-17 syndrome, which is mainly characterized by an imbalance between T-helper cells which favors generation of Th-17 cells.
# C57BL6 (B6) mice = assay: Survival (longevity) of C57BL6 (B6) mice; assay type: in vivo; conditions: 7.5 mg/Kg
# Source text: Given that administration of P2X7R inhibitors is associated with a slow-down of metabolic processes within activated cells/tissues (9) and the effect of eATP in favoring cell senescence, it is contemplated herein that this mechanism could be responsible for promoting longevity and prolonging survival.
# [4] = test system: CD4+ T cells obtained from individuals carrying the P2X7R mutation; assay: Th17 generation in vitro in CD4+ T cells from individuals carrying the P2X7R mutation; assay type: cell-based, human; conditions: inhibitor added to the cell culture, carriers of P2X7R mutation rs3751143
# Source text: as §1
compound,measurement,setting,value
"Cc1ccccc1Nc1nc2nonc2nc1N/N=C\c1cccc2ccccc12 [compound 4, [6-(N′-Naphthalen-1-ylmethylene-hydrazino)-[1,2,5]oxadiazolo[3,4-b]pyrazin-5-yl]-o-tolyl-amine]",inhibition of activation of P2X7R signaling through eATP (expression of Th2-related factors IL-4 and IRF4),[1],significative ability to inhibit the activation of P2X7R signaling
"O=C(O)c1ccccc1-c1ccccc1C(=O)Nc1cccc(-c2nc3ccccc3[nH]2)c1 [compound 6, 2′-[3-(1H-Benzoimidazol-2-yl)-phenylcarbamoyl]-biphenyl-2-carboxylic acid]",inhibition of activation of P2X7R signaling through eATP (expression of Th2-related factors IL-4 and IRF4),[1],significative ability to inhibit the activation of P2X7R signaling
Nc1ncnc2c1ncn2[C@@H](C=O)O[C@@H](C=O)COP(=O)(O)OP(=O)(O)OP(=O)(O)O [oATP],neutralizing activation of P2X7R signaling through eATP,[2],capable of neutralizing activation of P2X7R signaling
same,allograft survival,[3],significantly prolongs allograft survival
same,MST,C57BL6 (B6) mice,19.5 weeks
same,treated animals alive,C57BL6 (B6) mice; at 17 weeks,60%
same,survival as compared to untreated controls,"C57BL6 (B6) mice; p=0.01, 7.5 mg/kg",significantly prolongs survival; also recorded: increased survival
same,Th17 generation,[4],at least partially inhibited; also recorded: partially abrogated
"OC(CNCc1ccccc1)COc1ccc(OCC(O)CNCc2ccccc2)cc1 (centres unmarked) [compound 3, 1-Benzylamino-3-[4-(3-benzylamino-2-hydroxy-propoxy)-phenoxy]-propan-2-ol]",inhibition of activation of P2X7R signaling through eATP (expression of Th2-related factors IL-4 and IRF4),[1],significative ability to inhibit the activation of P2X7R signaling
"COc1ccc(/C=N\Nc2cc(C)nc(NCc3ccccc3)n2)c(OC)c1 [Compound #5, Benzyl-{4-[N′-(2,4-dimethoxy-benzylidene)-hydrazino]-6-methyl-pyrimidin-2-yl}-amine]","effect on the expression of Th2-related factors GATA3, IL-4 and IRF4","[1]; PBMCs, FIG. 2, compared with CE-224,535 and oATP","effect comparable to that of human P2X7R inhibitor CE-224,535 and P2X7 receptor antagonist oATP"
same,inhibition of activation of P2X7R signaling through eATP (expression of Th2-related factors IL-4 and IRF4),[1],significative ability to inhibit the activation of P2X7R signaling
